Like-named read-outs stand apart in the source and are kept apart here.
What was measured:
PKD1 = target: T1, PKD1 (Homo sapiens, UniProt Q15139); assay: Kinase profiling PKD1; type: biochemical; conditions: for remaining activity at 100 µM: read-out: residual kinase activity, PKD1
T1 sequence (Q15139 1-912): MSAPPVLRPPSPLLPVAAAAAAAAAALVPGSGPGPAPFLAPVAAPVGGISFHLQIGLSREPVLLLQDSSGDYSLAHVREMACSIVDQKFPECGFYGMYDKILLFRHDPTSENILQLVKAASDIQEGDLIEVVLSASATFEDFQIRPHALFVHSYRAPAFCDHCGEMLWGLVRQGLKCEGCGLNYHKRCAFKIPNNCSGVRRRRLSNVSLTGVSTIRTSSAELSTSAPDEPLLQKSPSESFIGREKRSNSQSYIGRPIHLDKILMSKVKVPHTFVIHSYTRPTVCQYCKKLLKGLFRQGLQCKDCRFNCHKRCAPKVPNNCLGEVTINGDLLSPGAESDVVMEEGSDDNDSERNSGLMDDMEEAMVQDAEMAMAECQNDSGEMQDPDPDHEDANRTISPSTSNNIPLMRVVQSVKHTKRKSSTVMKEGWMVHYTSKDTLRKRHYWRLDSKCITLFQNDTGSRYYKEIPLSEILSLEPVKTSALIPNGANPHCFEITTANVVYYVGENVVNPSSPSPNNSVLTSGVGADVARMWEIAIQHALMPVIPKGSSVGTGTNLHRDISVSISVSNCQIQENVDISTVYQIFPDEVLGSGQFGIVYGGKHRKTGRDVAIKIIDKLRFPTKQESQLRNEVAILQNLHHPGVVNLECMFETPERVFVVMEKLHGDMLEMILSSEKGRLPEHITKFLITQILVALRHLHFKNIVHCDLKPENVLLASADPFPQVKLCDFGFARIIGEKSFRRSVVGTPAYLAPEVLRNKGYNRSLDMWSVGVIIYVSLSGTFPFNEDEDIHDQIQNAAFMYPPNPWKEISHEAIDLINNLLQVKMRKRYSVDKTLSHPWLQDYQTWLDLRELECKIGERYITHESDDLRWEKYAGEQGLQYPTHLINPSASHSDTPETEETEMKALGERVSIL
Text: (§1) Any value less that 25 is considered to be highly significant inhibition.

TAK1 = target: T2, TAK1 (Homo sapiens, UniProt O43318); assay: Kinase profiling TAK1; type: biochemical; conditions: for remaining activity at 100 µM: read-out: residual kinase activity, TAK1
T2 sequence (O43318 1-303 limits assumed): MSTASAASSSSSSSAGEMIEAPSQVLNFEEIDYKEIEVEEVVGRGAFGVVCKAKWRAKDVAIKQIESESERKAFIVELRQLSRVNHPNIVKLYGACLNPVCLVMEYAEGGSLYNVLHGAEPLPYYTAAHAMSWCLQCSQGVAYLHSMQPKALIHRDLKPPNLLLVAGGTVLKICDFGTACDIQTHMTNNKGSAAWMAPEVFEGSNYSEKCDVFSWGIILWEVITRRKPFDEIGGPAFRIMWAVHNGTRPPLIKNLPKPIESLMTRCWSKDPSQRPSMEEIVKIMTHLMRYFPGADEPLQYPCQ
T2 sequence (Q15750 437-504 partner limits assumed): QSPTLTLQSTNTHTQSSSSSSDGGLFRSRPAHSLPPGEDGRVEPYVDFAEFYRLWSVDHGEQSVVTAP
Text: as §1

p38g MAPK = target: T3, p38g MAPK (Homo sapiens, UniProt P53778); assay: Kinase profiling p38g MAPK; type: biochemical; conditions: for remaining activity at 100 µM: read-out: residual kinase activity, p38g MAPK
T3 sequence (P53778 1-367): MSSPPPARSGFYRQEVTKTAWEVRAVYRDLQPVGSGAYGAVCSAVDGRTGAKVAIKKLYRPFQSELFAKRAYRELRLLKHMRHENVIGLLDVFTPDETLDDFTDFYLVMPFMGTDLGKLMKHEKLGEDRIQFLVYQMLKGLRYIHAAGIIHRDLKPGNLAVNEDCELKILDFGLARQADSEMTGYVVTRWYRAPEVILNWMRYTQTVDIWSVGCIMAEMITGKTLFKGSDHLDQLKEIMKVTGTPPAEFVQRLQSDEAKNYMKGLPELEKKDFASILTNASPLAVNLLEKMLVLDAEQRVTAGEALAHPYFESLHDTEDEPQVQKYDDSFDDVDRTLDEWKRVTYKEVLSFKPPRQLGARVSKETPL
Text: as §1

EPH-A2 = EPH-A2 (Homo sapiens, UniProt P29317); assay: Kinase profiling EPH-A2; type: biochemical; conditions: for remaining activity at 100 µM: read-out: residual kinase activity, EPH-A2
Text: as §1

ROCK 2 = ROCK 2 (Homo sapiens, UniProt O75116); assay: Kinase profiling ROCK 2; type: biochemical; conditions: for remaining activity at 100 µM: read-out: residual kinase activity, ROCK 2
Text: as §1

PKCa = PKCa (Homo sapiens, UniProt P17252); assay: Kinase profiling PKCa; type: biochemical; conditions: for remaining activity at 100 µM: read-out: residual kinase activity, PKCa
Text: as §1

RIPK2 = RIPK2 (Homo sapiens, UniProt O43353); assay: Kinase profiling RIPK2; type: biochemical; conditions: for remaining activity at 100 µM: read-out: residual kinase activity, RIPK2
Text: as §1

PIM1 = PIM1 (Homo sapiens, UniProt P11309); assay: Kinase profiling PIM1; type: biochemical; conditions: for remaining activity at 100 µM: read-out: residual kinase activity, PIM1
Text: as §1

PKA = PKA (Homo sapiens, UniProt P17612); assay: Kinase profiling PKA; type: biochemical; conditions: for remaining activity at 100 µM: read-out: residual kinase activity, PKA
Text: as §1

IRAK4 = target: T4, IRAK4 (Homo sapiens, UniProt Q9NWZ3); assay: Kinase profiling IRAK4; type: biochemical; conditions: for remaining activity at 100 µM: read-out: residual kinase activity, IRAK4
T4 sequence (Q9NWZ3 1-460): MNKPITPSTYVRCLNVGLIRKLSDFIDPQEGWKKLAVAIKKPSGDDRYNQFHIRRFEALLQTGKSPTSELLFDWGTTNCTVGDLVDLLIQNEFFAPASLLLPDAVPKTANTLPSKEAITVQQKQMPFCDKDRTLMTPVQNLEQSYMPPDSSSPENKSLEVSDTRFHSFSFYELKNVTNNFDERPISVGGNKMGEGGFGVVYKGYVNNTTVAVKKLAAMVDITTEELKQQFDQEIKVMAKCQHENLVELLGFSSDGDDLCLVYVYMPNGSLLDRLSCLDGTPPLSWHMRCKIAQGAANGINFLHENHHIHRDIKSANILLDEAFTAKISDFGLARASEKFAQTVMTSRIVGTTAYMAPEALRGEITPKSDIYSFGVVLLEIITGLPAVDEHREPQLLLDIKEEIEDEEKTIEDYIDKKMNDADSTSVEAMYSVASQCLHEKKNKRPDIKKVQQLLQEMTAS
Text: as §1

JAK2 = JAK2 (Homo sapiens, UniProt O60674); assay: Kinase profiling JAK2; type: biochemical; conditions: for remaining activity at 100 µM: read-out: residual kinase activity, JAK2
Text: as §1

p38a MAPK = p38a MAPK (Homo sapiens, UniProt Q16539); assay: Kinase profiling p38a MAPK; type: biochemical; conditions: for remaining activity at 100 µM: read-out: residual kinase activity, p38a MAPK
Text: as §1

AMPK (hum) = assay: Kinase profiling AMPK (hum); type: biochemical, human; conditions: 100 micromolar inhibitor; 100 = no change
Text: as §1

[1] = 100 micromolar inhibitor concentration, 100 is no change
[2] = 100 micromolar inhibitor, 100 = no change

Chain of PIM1 (P11309 whole entry, species assumed): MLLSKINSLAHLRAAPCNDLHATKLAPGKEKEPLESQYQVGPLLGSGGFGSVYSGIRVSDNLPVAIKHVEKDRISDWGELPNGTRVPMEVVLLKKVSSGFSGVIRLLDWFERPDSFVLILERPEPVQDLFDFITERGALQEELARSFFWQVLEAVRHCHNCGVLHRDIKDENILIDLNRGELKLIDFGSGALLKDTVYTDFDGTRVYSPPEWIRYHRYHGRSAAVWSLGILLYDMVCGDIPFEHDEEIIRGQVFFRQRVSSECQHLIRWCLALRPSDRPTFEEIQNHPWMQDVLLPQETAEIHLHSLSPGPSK
Chain of p38a MAPK (Q16539 whole entry): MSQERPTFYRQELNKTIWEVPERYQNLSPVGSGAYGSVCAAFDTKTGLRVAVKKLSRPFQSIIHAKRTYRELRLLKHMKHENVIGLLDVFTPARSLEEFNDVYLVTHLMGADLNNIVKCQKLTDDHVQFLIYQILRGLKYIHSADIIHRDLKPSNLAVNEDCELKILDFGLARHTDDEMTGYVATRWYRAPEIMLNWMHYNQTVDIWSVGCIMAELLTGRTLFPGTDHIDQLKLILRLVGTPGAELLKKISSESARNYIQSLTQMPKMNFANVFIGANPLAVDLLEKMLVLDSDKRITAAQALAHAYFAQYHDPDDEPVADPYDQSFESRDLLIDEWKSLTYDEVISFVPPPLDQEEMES
Chain of ROCK 2 (O75116 whole entry, species assumed): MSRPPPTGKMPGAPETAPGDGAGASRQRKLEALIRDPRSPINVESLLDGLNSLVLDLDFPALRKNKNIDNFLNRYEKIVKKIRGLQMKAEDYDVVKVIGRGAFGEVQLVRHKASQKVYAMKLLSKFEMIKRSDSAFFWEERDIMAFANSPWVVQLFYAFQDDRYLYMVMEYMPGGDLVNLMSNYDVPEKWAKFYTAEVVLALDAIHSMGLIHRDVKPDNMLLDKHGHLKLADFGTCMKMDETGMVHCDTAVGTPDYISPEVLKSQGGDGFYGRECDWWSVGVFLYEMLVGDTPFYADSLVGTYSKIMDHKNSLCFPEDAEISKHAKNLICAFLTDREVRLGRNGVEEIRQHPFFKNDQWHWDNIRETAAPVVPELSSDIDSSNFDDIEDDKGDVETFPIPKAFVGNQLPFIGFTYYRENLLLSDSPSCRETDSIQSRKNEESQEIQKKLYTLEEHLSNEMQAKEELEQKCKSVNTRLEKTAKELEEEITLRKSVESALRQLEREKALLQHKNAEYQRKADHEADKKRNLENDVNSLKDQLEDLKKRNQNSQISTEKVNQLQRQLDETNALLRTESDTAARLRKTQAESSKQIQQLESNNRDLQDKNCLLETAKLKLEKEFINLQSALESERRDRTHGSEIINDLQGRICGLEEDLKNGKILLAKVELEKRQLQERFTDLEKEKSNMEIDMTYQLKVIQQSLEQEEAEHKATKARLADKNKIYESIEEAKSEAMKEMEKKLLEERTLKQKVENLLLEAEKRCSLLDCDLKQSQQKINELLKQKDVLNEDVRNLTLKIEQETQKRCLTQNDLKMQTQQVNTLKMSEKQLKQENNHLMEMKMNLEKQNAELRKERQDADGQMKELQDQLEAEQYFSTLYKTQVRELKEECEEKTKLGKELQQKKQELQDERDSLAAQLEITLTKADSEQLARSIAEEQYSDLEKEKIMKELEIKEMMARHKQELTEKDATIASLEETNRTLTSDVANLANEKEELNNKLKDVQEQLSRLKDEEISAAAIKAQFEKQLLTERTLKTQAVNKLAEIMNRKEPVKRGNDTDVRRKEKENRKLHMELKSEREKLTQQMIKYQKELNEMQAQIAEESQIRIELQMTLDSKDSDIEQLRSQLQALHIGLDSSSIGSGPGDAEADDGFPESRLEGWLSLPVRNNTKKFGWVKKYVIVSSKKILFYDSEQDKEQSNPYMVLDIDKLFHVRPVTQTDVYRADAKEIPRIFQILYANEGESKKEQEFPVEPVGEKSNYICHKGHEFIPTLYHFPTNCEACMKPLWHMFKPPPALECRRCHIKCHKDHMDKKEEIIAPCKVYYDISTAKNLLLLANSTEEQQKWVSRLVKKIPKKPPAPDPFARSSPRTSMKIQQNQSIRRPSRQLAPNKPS
Chain of JAK2 (O60674 whole entry, species assumed): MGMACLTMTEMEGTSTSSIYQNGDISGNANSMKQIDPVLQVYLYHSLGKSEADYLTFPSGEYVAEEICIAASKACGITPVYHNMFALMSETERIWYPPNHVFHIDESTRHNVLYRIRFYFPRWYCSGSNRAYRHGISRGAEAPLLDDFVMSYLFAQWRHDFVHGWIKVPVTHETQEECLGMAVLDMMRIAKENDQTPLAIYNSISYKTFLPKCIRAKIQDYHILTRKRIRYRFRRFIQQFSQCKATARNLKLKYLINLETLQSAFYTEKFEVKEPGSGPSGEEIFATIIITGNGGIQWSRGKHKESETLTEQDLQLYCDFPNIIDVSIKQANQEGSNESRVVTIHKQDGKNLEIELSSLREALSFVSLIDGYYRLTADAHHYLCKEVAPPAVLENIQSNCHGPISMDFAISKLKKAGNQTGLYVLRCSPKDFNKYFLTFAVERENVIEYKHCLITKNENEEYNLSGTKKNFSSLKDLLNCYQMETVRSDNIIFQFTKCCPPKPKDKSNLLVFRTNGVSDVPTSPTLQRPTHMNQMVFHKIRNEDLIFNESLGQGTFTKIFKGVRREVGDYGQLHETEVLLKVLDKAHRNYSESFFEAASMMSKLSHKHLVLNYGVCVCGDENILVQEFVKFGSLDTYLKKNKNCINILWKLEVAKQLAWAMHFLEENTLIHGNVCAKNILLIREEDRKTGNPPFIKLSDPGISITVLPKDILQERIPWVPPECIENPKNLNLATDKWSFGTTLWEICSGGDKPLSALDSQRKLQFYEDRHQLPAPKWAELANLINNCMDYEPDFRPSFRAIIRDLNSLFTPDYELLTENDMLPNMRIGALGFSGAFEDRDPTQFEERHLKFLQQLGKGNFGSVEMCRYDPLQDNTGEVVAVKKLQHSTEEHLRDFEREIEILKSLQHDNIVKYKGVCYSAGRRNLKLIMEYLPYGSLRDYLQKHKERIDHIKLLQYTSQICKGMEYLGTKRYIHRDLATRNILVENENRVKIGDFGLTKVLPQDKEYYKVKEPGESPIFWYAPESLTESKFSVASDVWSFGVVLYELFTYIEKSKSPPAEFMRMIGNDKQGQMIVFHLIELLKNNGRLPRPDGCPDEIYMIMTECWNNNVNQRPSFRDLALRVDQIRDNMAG
Chain of RIPK2 (O43353 whole entry, species assumed): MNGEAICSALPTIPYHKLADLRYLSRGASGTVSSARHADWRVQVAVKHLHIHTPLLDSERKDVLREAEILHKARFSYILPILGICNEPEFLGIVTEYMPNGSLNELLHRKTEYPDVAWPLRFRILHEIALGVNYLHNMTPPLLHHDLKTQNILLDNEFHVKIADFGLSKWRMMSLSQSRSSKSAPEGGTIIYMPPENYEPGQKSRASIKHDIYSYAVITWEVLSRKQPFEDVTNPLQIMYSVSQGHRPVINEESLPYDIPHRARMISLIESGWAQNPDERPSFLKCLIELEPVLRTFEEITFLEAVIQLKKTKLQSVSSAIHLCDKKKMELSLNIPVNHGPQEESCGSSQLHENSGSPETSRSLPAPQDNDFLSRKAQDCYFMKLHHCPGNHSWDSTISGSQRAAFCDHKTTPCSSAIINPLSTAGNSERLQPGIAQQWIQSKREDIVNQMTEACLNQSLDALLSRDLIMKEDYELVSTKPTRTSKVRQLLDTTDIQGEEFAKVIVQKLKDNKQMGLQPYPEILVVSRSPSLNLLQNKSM

CC(=O)Nc1nc2cc(O)ccc2s1 [Compound 01-66, N-(5-hydroxybenzo[d]thiazol-2-yl)acetamide]
remaining activity at 100 µM (PKD1): 30% | remaining activity at 100 µM (TAK1): 30% | remaining activity at 100 µM (p38g MAPK): 46% | remaining activity at 100 µM (EPH-A2): 67% | remaining activity at 100 µM (ROCK 2): 56% | remaining activity at 100 µM (PKCa): 82% | remaining activity at 100 µM (RIPK2): 29% | remaining activity at 100 µM (PIM1): 12% | remaining activity at 100 µM (PKA): 95% | remaining activity at 100 µM (IRAK4): 18% | remaining activity at 100 µM (JAK2): 65% | remaining activity at 100 µM (p38a MAPK): 84%

CC(=O)Nc1nc2ccc(O)cc2s1 [Compound 01-71]
remaining activity at 100 µM (PKD1; [1]): 37% | remaining activity at 100 µM (TAK1; [1]): 11% | remaining activity at 100 µM (p38g MAPK; [1]): 84% | remaining activity at 100 µM (EPH-A2; [1]): 66% | remaining activity at 100 µM (ROCK 2; [1]): 34% | remaining activity at 100 µM (PKCa; [1]): 77% | remaining activity at 100 µM (RIPK2; [1]): 22% | remaining activity at 100 µM (PIM1; [1]): 19% | remaining activity at 100 µM (PKA; [1]): 70% | remaining activity at 100 µM (IRAK4; [1]): 13% | remaining activity at 100 µM (JAK2; [1]): 43% | remaining activity at 100 µM (p38a MAPK; [1]): 86%

CC(=O)Nc1cccc(C(=O)Nc2nc3ccc(O)cc3s2)c1 [Compound 03-58]
residual kinase activity, PKD1 (PKD1; [1]): 54 | residual kinase activity, p38g MAPK (p38g MAPK; [1]): 64 | residual kinase activity, ROCK 2 (ROCK 2; [1]): 10 | residual kinase activity, PKCa (PKCa; [1]): 96 | residual kinase activity, PKA (PKA; [1]): 90 | residual kinase activity, p38a MAPK (p38a MAPK; [1]): 81

CC(=O)NC(C)C(=O)Nc1nc2ccc(C(F)(F)F)cc2s1 (stereo not drawn) [Compound 03-80]
residual kinase activity, PKD1 (PKD1; [1]): 82 | residual kinase activity, p38g MAPK (p38g MAPK; [1]): 83 | residual kinase activity, ROCK 2 (ROCK 2; [1]): 80 | residual kinase activity, PKCa (PKCa; [1]): 125 | residual kinase activity, PKA (PKA; [1]): 104 | residual kinase activity, p38a MAPK (p38a MAPK; [1]): 79

CC(=O)Nc1ccccc1C(=O)Nc1nc2ccc(O)cc2s1 [Compound 08-39]
residual kinase activity, PKD1 (PKD1; [1]): 32 | residual kinase activity, p38g MAPK (p38g MAPK; [1]): 90 | residual kinase activity, ROCK 2 (ROCK 2; [1]): 22 | residual kinase activity, PKCa (PKCa; [1]): 43 | residual kinase activity, PKA (PKA; [1]): 88 | residual kinase activity, p38a MAPK (p38a MAPK; [1]): 96

COc1ccc2nc(C(=O)Nc3ccccc3)sc2c1 [Compound 13-03]
residual kinase activity, PKD1 (PKD1; [2]): 113 | residual kinase activity, TAK1 (TAK1; [2]): 96 | residual kinase activity, EPH-A2 (EPH-A2; [2]): 63 | residual kinase activity, ROCK 2 (ROCK 2; [2]): 70 | residual kinase activity, PKCa (PKCa; [2]): 119 | residual kinase activity, RIPK2 (RIPK2; [2]): 76 | residual kinase activity, PIM1 (PIM1; [2]): 96 | residual kinase activity, PKA (PKA; [2]): 97 | residual kinase activity, AMPK (hum) (AMPK (hum)): 99 | residual kinase activity, IRAK4 (IRAK4; [2]): 93 | residual kinase activity, JAK2 (JAK2; [2]): 93 | residual kinase activity, p38a MAPK (p38a MAPK; [2]): 103
